Values of other authors in patent US12205808B2 (priority 2019, dated 2025).

Conditions: in vivo

Row | Structure (SMILES) | Concentration in postmortem plasma samples | Concentration in plasma | Whole blood concentrations
1 | N#CCCCCn1cc(C(=O)c2cccc3ccccc23)c2ccccc21 [AM-2232] | 0.86 ng/mL | – | –
2 | CC(C)[C@H](NC(=O)c1nn(CC2CCCCC2)c2ccccc12)C(N)=O | – | 0.4 to 14.3 ng/mL | 0.6 to 10 ng/mL
3 | Cc1ccc(C(=O)c2cn(CCCCCF)c3ccccc23)c2ccccc12 [MAM-2201] | 16.3 ng/mL | – | –
